How the values were obtained:
Format in all cases: cell-based
Conditions in all cases: 50 mg/l
Acinetobacter baumanii = assay: Alanyl-peptidase detection on agar medium (Example 13)
Procedure: (§1) The detection media were prepared by mixing 3.6 g of biogelytone (bioMérieux), 2.16 g of meat extract (bioMérieux), 1.26 g of malt extract (bioMérieux), 5.76 g of NaCl (Merck) and 10.8 g of agar (bioMérieux).
(§2) 720 ml of osmosed water were added to the powder, and the mixture was then melted in a waterbath at […]. The product was separated into two flasks, each of 360 ml. Autoclaving was carried out at 121° C. for 15 min and the product was cooled to […]. in a waterbath.
(§3) L-Alanyl-7-amino-4-methylcoumarin (Ala-AMC, Bachem) was then added to the first flask as a control, at the final concentration of 50 mg/l, and L-alanyl-9-aminobenzo[a]phenoxazin-5-one (Ala-ABP, substrate of the invention obtained in Example 2, in which the amino acid is L-alanine), was then added to the second flask at the final concentration of 25 mg/l.
(§4) The size of the colonies, their coloration and also the intensity of this coloration were noted.

Bacillus subtilis = assay: as above
Procedure: as §1, §2, §3, §4

Candida albicans [1] = assay: as above
Procedure: as §1, §2, §3, §4

Candida glabrata [2] = assay: as above
Procedure: as §1, §2, §3, §4

Candida krusei = assay: as above
Procedure: as §1, §2, §3, §4

[3] = system: Corynebacterium Pseudodiphteriticum; assay: as above
Procedure: as §1, §2, §3, §4

Edwardsiella tarda = assay: as above
Procedure: as §1, §2, §3, §4

Enterobacter cloacae = assay: as above
Procedure: as §1, §2, §3, §4

Enterococcus faecalis [4] = assay: as above
Procedure: as §1, §2, §3, §4

Enterococcus faecium = assay: as above
Procedure: as §1, §2, §3, §4

Escherichia coli [5] = assay: as above
Procedure: as §1, §2, §3, §4

Hafnia alvei = assay: as above
Procedure: as §1, §2, §3, §4

Klebsiella pneumoniae [6] = assay: as above
Procedure: as §1, §2, §3, §4

Listeria innocua = assay: as above
Procedure: as §1, §2, §3, §4

Proteus mirabilis = assay: as above
Procedure: as §1, §2, §3, §4

Pseudomonas aeruginosa = assay: as above
Procedure: as §1, §2, §3, §4

Saccharomyces cerevisiae [7] = assay: as above
Procedure: as §1, §2, §3, §4

Salmonella typhimurium = assay: as above
Procedure: as §1, §2, §3, §4

Serratia liquefaciens = assay: as above
Procedure: as §1, §2, §3, §4

Serratia marcescens = assay: as above
Procedure: as §1, §2, §3, §4

Staphylococcus aureus = assay: as above
Procedure: as §1, §2, §3, §4

[8] = system: Staphylococcus epidermidis; assay: as above
Procedure: as §1, §2, §3, §4

[9] = system: Staphylococcus saprophyticus; assay: as above
Procedure: as §1, §2, §3, §4

Streptococcus agalactiae = assay: as above
Procedure: as §1, §2, §3, §4

Streptococcus pyogenes = assay: as above
Procedure: as §1, §2, §3, §4

Candida albicans [10] = assay: Prolyl-peptidase detection on agar medium (Example 12); for color of the colony: key: B corresponds to fluorescent blue; R corresponds to pink
Procedure: (§5) The detection media were prepared by mixing 1.68 g of yeast extract (bioMérieux), 1.4 g of biocase (bioMérieux), 1.26 g of malt extract (bioMérieux), 0.08 g of glucose (Merck) and 3.92 g of agar (bioMérieux).
(§6) 280 ml of osmosed water were added to the powder, and the mixture was then melted in a waterbath at 100° C. The product was separated into two flasks, each of 140 ml. Autoclaving was carried out at 121° C. for 15 min and the product was cooled to 50° C. in a waterbath.
(§7) L-Prolyl-7-amino-4-methylcoumarin (Pro-AMC, Bachem) was then added to the first flask as a control and L-prolyl-9-aminobenzo[a]phenoxazin-5-one (Pro-ABP, substrate of the invention obtained in Example 2, in which the amino acid is L-Proline) was then added to the second flask at the final concentration of 50 mg/l.
as §4

Candida glabrata [11] = assay: as above
Procedure: as §5, §6, §7, §4

Candida guilliermondii = assay: as above
Procedure: as §5, §6, §7, §4

Candida tropicalis = assay: as above
Procedure: as §5, §6, §7, §4

Enterococcus faecalis [12] = assay: as above
Procedure: as §5, §6, §7, §4

Escherichia coli [13] = assay: as above
Procedure: as §5, §6, §7, §4

Klebsiella pneumoniae [14] = assay: as above
Procedure: as §5, §6, §7, §4

Saccharomyces cerevisiae [15] = assay: as above
Procedure: as §5, §6, §7, §4

Trichosporon beigelii = assay: as above
Procedure: as §5, §6, §7, §4
Throughout, for color of the colony: key: B corresponds to fluorescent blue; R corresponds to pink.

## Cc1cc(=O)oc2cc(NC(=O)[C@H](C)N)ccc12 [Ala-AMC, L-Alanyl-7-amino-4-methylcoumarin, reference compound]
Acinetobacter baumanii; 24 h
  growth diameter: 1.5 mm
  intensity of coloration, scale 0 to 4: 3
Acinetobacter baumanii; 48 h
  growth diameter: 1.5 mm
  intensity of coloration, scale 0 to 4: 3
Bacillus subtilis; 24 h
  growth diameter: 1.7 mm
Bacillus subtilis; 48 h
  growth diameter: 1.8 mm
Candida albicans [1]; 24 h
  growth diameter: 0.3 mm
Candida albicans [1]; 48 h
  growth diameter: 0.5 mm
  intensity of coloration, scale 0 to 4: 2
Candida glabrata [2]; 24 h
  growth diameter: 0.2 mm
Candida glabrata [2]; 48 h
  growth diameter: 0.3 mm
Candida krusei; 24 h
  growth diameter: 0.7 mm
Candida krusei; 48 h
  growth diameter: 1.5 mm
  intensity of coloration, scale 0 to 4: 0.25
[3]; 24 h
  growth diameter: 0 mm
[3]; 48 h
  growth diameter: 0.4 mm
  intensity of coloration, scale 0 to 4: 2
Edwardsiella tarda; 24 h
  growth diameter: 0.4 mm
  intensity of coloration, scale 0 to 4: 3
Edwardsiella tarda; 48 h
  growth diameter: 0.5 mm
  intensity of coloration, scale 0 to 4: 3
Enterobacter cloacae; 24 h
  growth diameter: 0.5 mm
  intensity of coloration, scale 0 to 4: 3
Enterobacter cloacae; 48 h
  growth diameter: 0.8 mm
  intensity of coloration, scale 0 to 4: 3
Enterococcus faecalis [4]; 24 h
  growth diameter: 0.3 mm
Enterococcus faecalis [4]; 48 h
  growth diameter: 0.4 mm
Enterococcus faecium; 24 h
  growth diameter: 0.2 mm
Enterococcus faecium; 48 h
  growth diameter: 0.3 mm
  intensity of coloration, scale 0 to 4: 0.25
Escherichia coli [5]; 24 h
  growth diameter: 1.7 mm
  intensity of coloration, scale 0 to 4: 3
Escherichia coli [5]; 48 h
  growth diameter: 1.7 mm
  intensity of coloration, scale 0 to 4: 3
Hafnia alvei; 24 h
  growth diameter: 0.7 mm
  intensity of coloration, scale 0 to 4: 3
Hafnia alvei; 48 h
  growth diameter: 0.7 mm
  intensity of coloration, scale 0 to 4: 3
Klebsiella pneumoniae [6]; 24 h
  growth diameter: 1.2 mm
  intensity of coloration, scale 0 to 4: 3
Klebsiella pneumoniae [6]; 48 h
  growth diameter: 1.8 mm
  intensity of coloration, scale 0 to 4: 3
Listeria innocua; 24 h
  growth diameter: 0.2 mm
Listeria innocua; 48 h
  growth diameter: 0.3 mm
Proteus mirabilis; 24 h
  growth diameter: 0.7 mm
  intensity of coloration, scale 0 to 4: 3
Proteus mirabilis; 48 h
  growth diameter: 0.7 mm
  intensity of coloration, scale 0 to 4: 3
Pseudomonas aeruginosa; 24 h
  growth diameter: 0.3 mm
Pseudomonas aeruginosa; 48 h
  growth diameter: 0.5 mm
  intensity of coloration, scale 0 to 4: 2
Saccharomyces cerevisiae [7]; 24 h
  growth diameter: 0.1 mm
Saccharomyces cerevisiae [7]; 48 h
  growth diameter: 0.2 mm
Salmonella typhimurium; 24 h
  growth diameter: 1.3 mm
  intensity of coloration, scale 0 to 4: 3
Salmonella typhimurium; 48 h
  growth diameter: 1.5 mm
  intensity of coloration, scale 0 to 4: 3
Serratia liquefaciens; 24 h
  growth diameter: 0.7 mm
  intensity of coloration, scale 0 to 4: 3
Serratia liquefaciens; 48 h
  growth diameter: 1.3 mm
  intensity of coloration, scale 0 to 4: 3
Serratia marcescens; 24 h
  growth diameter: 0.5 mm
  intensity of coloration, scale 0 to 4: 3
Serratia marcescens; 48 h
  growth diameter: 0.7 mm
  intensity of coloration, scale 0 to 4: 3
Staphylococcus aureus; 24 h
  growth diameter: 0.5 mm
Staphylococcus aureus; 48 h
  growth diameter: 0.7 mm
[8]; 24 h
  growth diameter: 0.3 mm
[8]; 48 h
  growth diameter: 0.4 mm
[9]; 24 h
  growth diameter: 0.3 mm
[9]; 48 h
  growth diameter: 0.4 mm
Streptococcus agalactiae; 24 h
  growth diameter: 0.1 mm
Streptococcus agalactiae; 48 h
  growth diameter: 0.2 mm
Streptococcus pyogenes; 24 h
  growth diameter: 0.1 mm
Streptococcus pyogenes; 48 h
  growth diameter: 0.2 mm
  intensity of coloration, scale 0 to 4: 3

## Cc1cc(=O)oc2cc(NC(=O)[C@@H]3CCCN3)ccc12 [Pro-AMC, L-Prolyl-7-amino-4-methylcoumarin, reference compound]
Candida albicans [10]; 24 h
  growth diameter: 1.2 mm
  intensity of coloration, scale 0 to 4: 2
Candida albicans [10]; 48 h
  growth diameter: 2.5 mm
  intensity of coloration, scale 0 to 4: 3
Candida glabrata [11]; 24 h
  growth diameter: 0.3 mm
Candida glabrata [11]; 48 h
  growth diameter: 1.7 mm
Candida guilliermondii; 24 h
  growth diameter: 0.4 mm
Candida guilliermondii; 48 h
  growth diameter: 1.8 mm
  intensity of coloration, scale 0 to 4: 3
Candida tropicalis; 24 h
  growth diameter: 1.2 mm
Candida tropicalis; 48 h
  growth diameter: 2 mm
Enterococcus faecalis [12]; 24 h
  growth diameter: 0.8 mm
Enterococcus faecalis [12]; 48 h
  growth diameter: 1.2 mm
Escherichia coli [13]; 24 h
  growth diameter: 3 mm
  intensity of coloration, scale 0 to 4: 0.5
Escherichia coli [13]; 48 h
  growth diameter: 3 mm
  intensity of coloration, scale 0 to 4: 0.5
Klebsiella pneumoniae [14]; 24 h
  growth diameter: 2.5 mm
  intensity of coloration, scale 0 to 4: 0.25
Klebsiella pneumoniae [14]; 48 h
  growth diameter: 3 mm
  intensity of coloration, scale 0 to 4: 0.25
Saccharomyces cerevisiae [15]; 24 h
  growth diameter: 0.3 mm
Saccharomyces cerevisiae [15]; 48 h
  growth diameter: 1.7 mm
Trichosporon beigelii; 24 h
  growth diameter: 0.7 mm
  intensity of coloration, scale 0 to 4: 0.25
Trichosporon beigelii; 48 h
  growth diameter: 3 mm
  intensity of coloration, scale 0 to 4: 2

## L-prolyl-9-aminobenzo[a]phenoxazin-5-one [Pro-ABP]
Candida albicans [10]; 24 h
  color of the colony: R
  growth diameter: 0.8 mm
  intensity of coloration, scale 0 to 4: 2
Candida albicans [10]; 48 h
  color of the colony: R
  growth diameter: 2.5 mm
  intensity of coloration, scale 0 to 4: 2
Candida glabrata [11]; 24 h
  growth diameter: 0.4 mm
Candida glabrata [11]; 48 h
  growth diameter: 1.8 mm
Candida guilliermondii; 24 h
  growth diameter: 0.3 mm
Candida guilliermondii; 48 h
  color of the colony: R
  growth diameter: 1.8 mm
  intensity of coloration, scale 0 to 4: 2
Candida tropicalis; 24 h
  growth diameter: 1.2 mm
Candida tropicalis; 48 h
  growth diameter: 1.8 mm
Enterococcus faecalis [12]; 24 h
  growth diameter: 0.7 mm
Enterococcus faecalis [12]; 48 h
  growth diameter: 0.7 mm
Escherichia coli [13]; 24 h
  color of the colony: R
  growth diameter: 3 mm
  intensity of coloration, scale 0 to 4: 0.25
Escherichia coli [13]; 48 h
  color of the colony: R
  growth diameter: 3 mm
  intensity of coloration, scale 0 to 4: 3
Klebsiella pneumoniae [14]; 24 h
  growth diameter: 2 mm
Saccharomyces cerevisiae [15]; 24 h
  growth diameter: 0.5 mm
Saccharomyces cerevisiae [15]; 48 h
  growth diameter: 2 mm
Trichosporon beigelii; 24 h
  growth diameter: 0.5 mm
Trichosporon beigelii; 48 h
  color of the colony: R
  growth diameter: 1.8 mm
  intensity of coloration, scale 0 to 4: 2

— patent US7695930B2, “Method for the detection, identification and/or quantification of microoganisms with peptidase activity using phenoxazinone derivatives as enzyme substrates” (Biomerieux, priority 2003, dated 2010)
